Data on 8 compounds can be found in patent publication US3974140A, “Ureidoacetamido-penicillins” (Bayer Aktiengesellschaft, priority 1970, dated 1976).

One data set concerns E. coli 14. The data set can be described thus: MIC, liquid medium test tube series dilution test. The data set is classed as cell-based. To be noted: E. coli 14, 24 hours, 37°C. Summed up:
(§1)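 In this in vitro test, growth inhibition is judged by absence of turbidity across a dilution series in complete nutrient broth. Readings are made after 24 hours at 37°C, with values given in units/ml.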

Another data set relates to E. coli 183/58. The data set can be described thus: MIC, liquid medium test tube series dilution test. The data set is classed as cell-based. To be noted: E. coli 183/58, 24 hours, 37°C. Summed up: as §1
In another data set the test system is E. coli A 261. The experiment in a line: MIC, liquid medium test tube series dilution test. Format: cell-based. To be noted: E. coli A 261, 24 hours, 37°C. A digest of the protocol: as §1
The test system of a further data set is E. coli C 165. The experiment in a line: MIC, liquid medium test tube series dilution test. Format: cell-based. To be noted: E. coli C 165, 24 hours, 37°C. A digest of the protocol:
as §1

Another data set concerns Klebsiella 63. The data set can be described thus: MIC, liquid medium test tube series dilution test. To be noted: Klebsiella 63, 24 hours, 37°C. Format: cell-based. A digest of the protocol: as §1
A further data set deals with Klebsiella K 10. The experiment in a line: MIC, liquid medium test tube series dilution test. The data set is classed as cell-based. To be noted: Klebsiella K 10, 24 hours, 37°C. A digest of the protocol:
as §1

For data set [1], the system named is Streptoc. faec. ATCC 9790. The experiment in a line: MIC, liquid medium test tube series dilution test. Format: cell-based. To be noted: Strep. faec. (Enterococcus) ATCC 9790, 24 hours, 37°C. Summed up:
as §1

The subject of another data set is Proteus vulg. 1017. The data set can be described thus: MIC, liquid medium test tube series dilution test. Format: cell-based, Proteus vulgaris. To be noted: Proteus vulg. 1017, 24 hours, 37°C. A digest of the protocol:
as §1

Another data set concerns Proteus vulg. 3400. The data set can be described thus: MIC, liquid medium test tube series dilution test. Format: cell-based, Proteus vulgaris. To be noted: Proteus vulg. 3400, 24 hours, 37°C. Summed up:
as §1

The test system of the next data set is Psdm. aerug. Bonn. The data set can be described thus: MIC, liquid medium test tube series dilution test. Format: cell-based, Pseudomonas aerug. To be noted: 24 hours, 37°C. A digest of the protocol:
as §1

A further data set relates to Psdm. aerug. Walter. The experiment in a line: MIC, liquid medium test tube series dilution test. Format: cell-based, Pseudomonas aerug. To be noted: 24 hours, 37°C. A digest of the protocol:
as §1

In the next data set the test system is Staph. aureus 133. The data set can be described thus: MIC, liquid medium test tube series dilution test. Format: cell-based, Staphylococcus aureus. To be noted: Staph. aureus 133, 24 hours, 37°C. Summed up:
as §1

The test system of the next data set is Staph. aureus 1777 E. The data set can be described thus: MIC, liquid medium test tube series dilution test. The data set is classed as cell-based, Staphylococcus aureus. To be noted: 24 hours, 37°C. Summed up: as §1
The subject of data set [2] is Gram-negative and Gram-positive bacteria. The experiment in a line: Antibacterial effect, general statements. To be noted: MIC comparison.
Data set [3] can be described thus: Serum level after subcutaneous administration, measured from microbiological activity against Proteus vulgaris 1017. The data set is classed as in vivo, white mice. From the text:
Serum level after subcutaneous ("s.c.") administration to white mice, in units/ml of serum, measured from the microbiological activity against Proteus vulgaris 1017 (ampicillin-resistant).

Data set [4] in a line: Acute toxicity (LD50), intravenous injection into the vein of the tail. The data set is classed as in vivo. To be noted: for LD50: mouse, in vivo, iv. From the text:
Acute toxicity (LD50) in white mice after
intravenous injection into the vein of the […]

Setting [5] is: i.v. into tail vein, white mice.

Where “and” joins values, the source holds several entries; their conditions need not be identical. Identical values can stand only once.

Consider `C=CCOC(=O)N(C)C(=O)N[C@@H](C(=O)N[C@@H]1C(=O)N2[C@@H]1SC(C)(C)[C@@H]2C(=O)O)c1ccccc1` [Example 68, Sodium D(-)-α-(3-allyloxycarbonyl-3-methyl-ureido)-benzylpenicillin], for which the MIC in the data set with E. coli 14 is recorded as 3.12 units/ml; in the data set on E. coli 14 (listed as (B) of Example 30), 3.12 units/ml; against E. coli 183/58, 6.25 units/ml; in the data set on E. coli 183/58 (listed as (B) of Example 30), 6.25 units/ml; in the data set with E. coli A 261 it was over 400 units/ml; in the data set with E. coli C 165 it was 12.5 units/ml. The MIC was 12.5 units/ml against E. coli C 165 (listed as (B) of Example 30); 25 units/ml in the data set with Klebsiella 63; 25 units/ml in the data set on Klebsiella 63 (listed as (B) of Example 30); 50 units/ml against Klebsiella K 10; 50 units/ml in the data set on Klebsiella K 10 (listed as (B) of Example 30); 50 units/ml in data set [1]. Moreover, the MIC in [1] (listed as (B) of Example 30) came out at 50 units/ml; in the data set with Proteus vulg. 1017, 12.5 units/ml; against Proteus vulg. 1017 (listed as (B) of Example 30), 12.5 units/ml; with Proteus vulg. 3400 it was 25 units/ml; in the data set on Proteus vulg. 3400 (listed as (B) of Example 30) it was 25 units/ml; in the data set on Psdm. aerug. Bonn it was 12.5 units/ml. For the same compound, the MIC in the data set with Psdm. aerug. Bonn (listed as (B) of Example 30) was 12.5 units/ml; against Psdm. aerug. Walter, 12.5 units/ml; against Psdm. aerug. Walter (listed as (B) of Example 30) it was 12.5 units/ml; with Staph. aureus 133 it was under 0.78 units/ml; in the data set on Staph. aureus 133 (listed as (B) of Example 30), 0.78 units/ml; in the data set on Staph. aureus 1777 E, 50 units/ml. In addition, the “Biological activity compared between penicillin (A) and penicillin (B)” value in data set [2] was “identical within the limit of error”.

Take `CN(C(=O)CCCl)C(=O)N[C@@H](C(=O)N[C@@H]1C(=O)N2[C@@H]1SC(C)(C)[C@@H]2C(=O)O)c1ccccc1` [Example 64, Sodium D(-)-α-(3-β -chloropropionyl-3-methyl-ureido)-benzylpenicillin]: the MIC is 3.12 units/ml with E. coli 14; 25 units/ml in the data set with E. coli 183/58; over 400 units/ml with E. coli A 261; 25 units/ml in the data set with E. coli C 165; 100 units/ml in the data set on Klebsiella 63; 100 units/ml in the data set with Klebsiella K 10. In addition, the MIC in data set [1] turned out to be 100 units/ml; with Proteus vulg. 1017, 25 units/ml; in the data set with Proteus vulg. 3400 it was 100 units/ml; in the data set with Psdm. aerug. Bonn, 25 units/ml; against Psdm. aerug. Walter, 50 units/ml; in the data set on Staph. aureus 133 it was 1.56 units/ml. In the data set on Staph. aureus 1777 E, this compound had an MIC of 50 units/ml. The Serum level in data set [3] (50.000 units s.c., 10 mins.) was 50 units/ml of serum; in data set [3] (50.000 units s.c., 20 mins.), 10 units/ml of serum; in [3] (150.000 units s.c., 15 mins.), 42 units/ml of serum; in data set [3] (150.000 units s.c., 30 mins.), 26 units/ml of serum; in data set [3] (150.000 units s.c., 60 mins.), < 10 units/ml of serum.

For the compound `C=CCN(C(C)=O)C(=O)N[C@@H](C(=O)N[C@@H]1C(=O)N2[C@@H]1SC(C)(C)[C@@H]2C(=O)O)c1ccccc1` [Example 86, Sodium D(-)-α-(3-acetyl-3-allyl-ureido)-benzylpenicillin], the MIC against E. coli 14 is 12.5 units/ml; against E. coli 183/58, 50 units/ml; against E. coli A 261, over 400 units/ml; in the data set with E. coli C 165, 25 units/ml; in the data set with Klebsiella 63, 50 units/ml; in the data set with Klebsiella K 10 it was 100 units/ml. For the same compound, the MIC in data set [1] is listed as 100 units/ml; against Proteus vulg. 1017 it was 50 units/ml; in the data set on Proteus vulg. 3400 it was 50 units/ml; with Psdm. aerug. Bonn, 25 units/ml; in the data set on Psdm. aerug. Walter it was 50 units/ml; with Staph. aureus 133, under 0.78 units/ml. For the same compound, the median lethal dose (LD50) (usually the dose at which mortality reaches 50%) in data set [4] (setting [5]) is over 3000 mg/kg.

Consider `Cc1onc(-c2c(Cl)cccc2Cl)c1C(=O)N[C@@H]1C(=O)N2[C@@H]1SC(C)(C)[C@@H]2C(=O)O` [Dicycloxacillin, reference compound], for which the “Acute toxicity (LD50)” value in data set [4] (setting [5]) is reported as 900 mg/kg.

For `CCN(C(=O)N[C@@H](C(=O)N[C@@H]1C(=O)N2[C@@H]1SC(C)(C)[C@@H]2C(=O)O)c1ccccc1)C(=O)c1ccccc1` [Example 60, Sodium D(-)-α-(3-benzoyl-3-ethyl-ureido)-benzylpenicillin], the MIC was 6.25 units/ml with E. coli 14; 12.5 units/ml against E. coli 183/58; over 400 units/ml with E. coli A 261; 25 units/ml against E. coli C 165; 50 units/ml in the data set on Klebsiella 63; 100 units/ml in the data set on Klebsiella K 10. Besides, the MIC is listed as 100 units/ml in [1]; 25 units/ml against Proteus vulg. 1017; 50 units/ml against Proteus vulg. 3400; 25 units/ml against Psdm. aerug. Bonn; 50 units/ml in the data set with Psdm. aerug. Walter; under 0.78 units/ml in the data set on Staph. aureus 133. The compound further returned an MIC in the data set on Staph. aureus 1777 E of 50 units/ml. The LD50 in [4] (setting [5]) turned out to be 1500 mg/kg.

For the compound `CN(C)C(=O)N(C)C(=O)N[C@@H](C(=O)N[C@@H]1C(=O)N2[C@@H]1SC(C)(C)[C@@H]2C(=O)O)c1ccccc1` [Example 94, Sodium D(-)-α-(3-dimethylaminocarbonyl-3-methyl-ureido)benzylpenicillin], the MIC against E. coli 14 was 12.5 units/ml; in the data set with E. coli 183/58 it was 100 units/ml; in the data set on E. coli A 261 it was over 400 units/ml; in the data set with E. coli C 165, 50 units/ml; with Klebsiella 63, 200 units/ml; with Klebsiella K 10 it was 200 units/ml. In addition, the MIC in [1] is recorded as 200 units/ml; with Proteus vulg. 1017, 100 units/ml; against Proteus vulg. 3400, 50 units/ml; in the data set on Psdm. aerug. Bonn, 100 units/ml; against Psdm. aerug. Walter, 100 units/ml; with Staph. aureus 133, 3.12 units/ml. Moreover, the LD50 in [4] stood at 4000 mg/kg.

In the case of `CN(C(=O)N[C@@H](C(=O)N[C@@H]1C(=O)N2[C@@H]1SC(C)(C)[C@@H]2C(=O)O)c1ccccc1)C(=O)c1cccs1` [Example 75, Sodium D(-)-α-(3-thenoyl-(2)-3-methyl-ureido)-benzylpenicillin], the values for the MIC against E. coli 14 and against Staph. aureus 133 were under 0.8 units/ml and 0.8 units/ml, respectively. This compound returned an LD50 in data set [4] of 1500 mg/kg.

For `C=CCOC(=O)N(C)C(=O)N[C@@H](C(=O)N[C@@H]1C(=O)N2[C@@H]1SC(C)(C)[C@@H]2C(=O)O)c1ccccc1` [Example 30, Sodium D(-)-α-(3-allyloxycarbonyl-3-methyl-ureido)-benzylpenicillin], the MIC against E. coli 14 was 4-20 units/ml; in the data set with E. coli 14 (listed as (A) of Example 30) it was 0.8-4 units/ml; in the data set with E. coli 183/58, 20-100 units/ml; in the data set with E. coli 183/58 (listed as (A) of Example 30), 4-20 units/ml; in the data set with E. coli A 261, over 500 units/ml; against E. coli A 261 (listed as (A) of Example 30), 100-500 units/ml. Besides, the MIC with E. coli C 165 was 20-100 units/ml; against E. coli C 165 (listed as (A) of Example 30), 4-20 units/ml; in the data set on Klebsiella 63, 20-100 units/ml and 100-500 units/ml; against Klebsiella K 10 it was 20-100 units/ml and 100-500 units/ml; in data set [1] it was 20-100 units/ml; against Proteus vulg. 1017, 100-500 units/ml. In addition, the MIC is 20-100 units/ml against Proteus vulg. 1017 (listed as (A) of Example 30); 100-500 units/ml and 20-100 units/ml in the data set on Proteus vulg. 3400; 100-500 units/ml with Psdm. aerug. Bonn; 4-20 units/ml against Psdm. aerug. Bonn (listed as (A) of Example 30); 100-500 units/ml in the data set on Psdm. aerug. Walter; 20-100 units/ml against Psdm. aerug. Walter (listed as (A) of Example 30). Further, the MIC with Staph. aureus 133 and against Staph. aureus 133 (listed as (A) of Example 30) was 0.8-4 units/ml throughout. Further, the “Biological activity compared between penicillin (A) and penicillin (B)” value in data set [2] was “identical within the limit of error”.
